Laboratory results as given in patent US20020085997A1, “TUMOUR VACCINE AND PROCESS FOR THE PREPARATION THEREOF” (priority 1995, published 2002).

Tested on: highly tumorigenic variant of the M-3 cells
Format: in vivo, mice

With “LFEAIEGFI [Leu Phe Glu Ala Ile Glu Gly Phe Ile, viral peptide derived from the influenza virus haemagglutinin, H2-K^d-ligand, used as foreign peptide to charge tumour cells]” the animals cured (cells charged with peptide using TfpL/DNA complexes) was 6 out of 8 and the animals developed tumours (peptide simply mixed with the cells (adjuvant)) was 7 out of 8.
